Experimental findings from US8435980B2 (AbbVie Inc., priority 2009, dated 2013) are described below.

The target in the experiment is T1, Cdc7 (BEV coexpressed huCDC7/DBF4) (Homo sapiens, UniProt O00311).
T1 construct: made in house; host or cells: BEV (baculovirus expression vector) co-expression; insect cells are implied but no cell line is named
T1 sequence (O00311 whole entry): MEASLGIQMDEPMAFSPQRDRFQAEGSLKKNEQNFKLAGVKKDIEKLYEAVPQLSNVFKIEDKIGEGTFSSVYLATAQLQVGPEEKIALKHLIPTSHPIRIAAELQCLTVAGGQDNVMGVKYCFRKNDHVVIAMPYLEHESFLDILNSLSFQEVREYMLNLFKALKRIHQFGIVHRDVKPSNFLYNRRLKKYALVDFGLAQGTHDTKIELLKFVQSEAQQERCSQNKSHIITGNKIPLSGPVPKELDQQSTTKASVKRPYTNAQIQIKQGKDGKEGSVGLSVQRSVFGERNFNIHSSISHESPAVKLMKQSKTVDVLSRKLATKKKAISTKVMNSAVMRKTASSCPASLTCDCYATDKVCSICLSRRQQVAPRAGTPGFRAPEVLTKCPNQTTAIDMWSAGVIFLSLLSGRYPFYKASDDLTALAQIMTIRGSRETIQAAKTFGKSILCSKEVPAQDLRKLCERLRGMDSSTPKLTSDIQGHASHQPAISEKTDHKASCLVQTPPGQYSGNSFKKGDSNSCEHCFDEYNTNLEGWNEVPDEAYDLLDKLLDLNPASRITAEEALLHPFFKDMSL
T1 sequence (Q9UBU7 whole entry partner): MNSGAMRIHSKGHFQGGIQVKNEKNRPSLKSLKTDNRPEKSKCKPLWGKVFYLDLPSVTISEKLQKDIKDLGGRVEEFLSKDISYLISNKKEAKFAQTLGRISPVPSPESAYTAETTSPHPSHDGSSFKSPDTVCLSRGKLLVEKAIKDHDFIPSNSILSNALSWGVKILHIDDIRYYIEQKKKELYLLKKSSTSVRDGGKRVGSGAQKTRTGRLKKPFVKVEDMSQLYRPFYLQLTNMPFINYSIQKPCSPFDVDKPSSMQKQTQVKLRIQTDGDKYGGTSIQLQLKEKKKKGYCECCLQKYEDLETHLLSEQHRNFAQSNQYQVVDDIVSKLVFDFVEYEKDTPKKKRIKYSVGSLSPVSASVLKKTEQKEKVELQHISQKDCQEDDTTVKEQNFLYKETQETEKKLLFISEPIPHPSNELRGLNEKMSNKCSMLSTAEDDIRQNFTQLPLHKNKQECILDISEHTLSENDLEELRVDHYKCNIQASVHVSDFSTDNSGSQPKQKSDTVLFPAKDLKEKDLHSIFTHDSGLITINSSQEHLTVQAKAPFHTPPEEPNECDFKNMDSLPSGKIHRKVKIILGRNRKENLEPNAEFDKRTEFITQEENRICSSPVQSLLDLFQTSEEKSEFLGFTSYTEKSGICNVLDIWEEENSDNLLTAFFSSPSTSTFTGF
The experiment can be described thus: Cdc7 enzyme inhibition assay ([33P]ATP, biotinylated peptide substrate, FlashPlate). It counts as biochemical. Particulars: Table 3; enzyme inhibition data (Ki). The protocol:
Cdc7 (BEV coexpressed huCDC7/DBF4) is prepared internally. Cdc7 assays are conducted as follows with final concentrations as listed. […] Reactions are quenched after 1 hr by the addition of 90 μL stop buffer (50 mM EDTA, 2M NaCl). […] (Ki) for exemplary compounds.
Take `CC(C)(C)OC(=O)N1CC(C(=O)N[C@H]2CC[C@H](Nc3cc(-c4c[nH]c5ncccc45)cc(Cl)n3)CC2)C1` [Example 364, tert-butyl 3-[(trans-4-{[6-chloro-4-(1H-pyrrolo[2,3-b]pyridin-3-yl)pyridin-2-yl]amino}cyclohexyl)carbamoyl]azetidine-1-carboxylate]: the Ki is less than 10 nM.

`O=C(C1CC1)N1CCC(C2CCC(Nc3cc(-c4c[nH]c5ncccc45)cc(Cl)n3)CC2)CC1` (stereo not shown) [Example 366, [4-(4-{[6-chloro-4-(1H-pyrrolo[2,3-b]pyridin-3-yl)pyridin-2-yl]amino}cyclohexyl)piperidin-1-yl](cyclopropyl)methanone] yielded a Ki of less than 10 nM.

The molecule `O=C(N[C@H]1CC[C@H](Nc2cc(-c3c[nH]c4ncccc34)cc(Cl)n2)CC1)C1CCN(CCO)CC1` [Example 367, N-(trans-4-{[6-chloro-4-(1H-pyrrolo[2,3-b]pyridin-3-yl)pyridin-2-yl]amino}cyclohexyl)-1-(2-hydroxyethyl)piperidine-4-carboxamide] showed an inhibition constant (Ki) of less than 10 nM.

Take `O=C(NC1CCC(CC2CCC(Nc3cc(-c4c[nH]c5ncccc45)cc(Cl)n3)CC2)CC1)C1CC1` (stereo not shown) [Example 368, N-{4-[(4-{[6-chloro-4-(1H-pyrrolo[2,3-b]pyridin-3-yl)pyridin-2-yl]amino}cyclohexyl)methyl]cyclohexyl} cyclopropanecarboxamide]: the Ki is less than 10 nM.

In turn, `CC(=O)N1CCC(NC2CCC(Nc3cc(-c4c[nH]c5ncccc45)cc(Cl)n3)CC2)CC1` (stereo not shown) [Example 369, 1-{4-[(4-{[6-chloro-4-(1H-pyrrolo[2,3-b]pyridin-3-yl)pyridin-2-yl]amino}cyclohexyl)amino]piperidin-1-yl}ethanone] displayed an inhibitory constant (Ki) of less than 10 nM.

The molecule `CS(=O)(=O)N1CCC(C2CCC(N(c3cc(-c4c[nH]c5ncccc45)cc(Cl)n3)S(C)(=O)=O)CC2)CC1` (stereo not shown) [Example 370, N-[6-chloro-4-(1H-pyrrolo[2,3-b]pyridin-3-yl)pyridin-2-yl]-N-{4-[1-(methylsulfonyl)piperidin-4-yl]cyclohexyl}methanesulfonamide] had a Ki of 10 to 100 nM.

Consider `CN1CCCC(C2CCC(Nc3cc(-c4c[nH]c5ncccc45)cc(Cl)n3)CC2)C1` (stereo not shown) [Example 371, 6-chloro-N-[4-(1-methylpiperidin-3-yl)cyclohexyl]-4-(1H-pyrrolo[2,3-b]pyridin-3-yl)pyridin-2-amine], for which the Ki is less than 10 nM.

Molecule `CN1CCCC(C2CCC(N(C)c3cc(-c4c[nH]c5ncccc45)cc(Cl)n3)CC2)C1` (stereo not shown) [Example 372, 6-chloro-N-methyl-N-[4-(1-methylpiperidin-3-yl)cyclohexyl]-4-(1H-pyrrolo[2,3-b]pyridin-3-yl)pyridin-2-amine] had a Ki of less than 10 nM.

In turn, `O=C(NCCS(=O)(=O)N[C@H]1CC[C@H](Nc2cc(-c3c[nH]c4ncccc34)cc(Cl)n2)CC1)C1CC1` [Example 373, N-{2-[(trans-4-{[6-chloro-4-(1H-pyrrolo[2,3-b]pyridin-3-yl)pyridin-2-yl]amino}cyclohexyl)sulfamoyl]ethyl} cyclopropanecarboxamide] returned a Ki of less than 10 nM.

Molecule `OCCCNc1cc(-c2c[nH]c3ncccc23)cc(Cl)n1` [Example 374, 3-{[6-chloro-4-(1H-pyrrolo[2,3-b]pyridin-3-yl)pyridin-2-yl]amino}propan-1-ol] showed a Ki of less than 10 nM.

With `Clc1cc(-c2c[nH]c3ncccc23)cc(NCCCN2CCOCC2)n1` [Example 375, 6-chloro-N-[3-(morpholin-4-yl)propyl]-4-(1H-pyrrolo[2,3-b]pyridin-3-yl)pyridin-2-amine], the inhibitory constant (Ki) is 10 to 100 nM.

As for `Clc1cc(-c2c[nH]c3ncccc23)cc(NCCCn2ccnc2)n1` [Example 376, 6-chloro-N-[3-(1H-imidazol-1-yl)propyl]-4-(1H-pyrrolo[2,3-b]pyridin-3-yl)pyridin-2-amine], the Ki is less than 10 nM.

The molecule `OCCCCCNc1cc(-c2c[nH]c3ncccc23)cc(Cl)n1` [Example 377, 5-{[6-chloro-4-(1H-pyrrolo[2,3-b]pyridin-3-yl)pyridin-2-yl]amino}pentan-1-ol] came in with a Ki of less than 10 nM.
